# Legend:
# [1] = system: TGF-β/Smad pathway in annulus fibrosus cells; test: Immunoprotein western-blotting of annulus fibrosus cells (activation of the TGF-β/Smad pathway); format: cell-based
# Protocol: Activation of the TGF-β/Smad pathway in annulus fibrosus cells by bleomycin:
# Method for immunoprotein western-blotting of annulus fibrosus cells:
# Annulus fibrosus cells (provided by CAS Cell Bank) were cultured in a six-well plate to which high-sugar DMEM medium+10% fetal bovine serum was added, the plate was placed in a 5% CO2 incubator at 37° C., and 5, 10 μg/ml of bleomycin and/or the TGFβR1 inhibitor LY364947 was added when the cell confluence was 70%-80% to co-culture for 30 min or 24 h. Total cellular protein was extracted from cultured annulus fibrosus cells (Medical Center of Rush University) by using RIPA lysis buffer (Roche, Basel, Switzerland) containing phosphatase and protease inhibitors. Equal amounts (20-30 μg) of extracted proteins were obtained by using 10% or 12.5% SDSPAGE gel, and proteins were separated by electroblotting with 0.22 μm PVDF membrane (Merck Millipore). The PVDF membrane was blocked with 5% BSA-PBS for 1 h at room temperature and then incubated with primary antibody (diluted at a ratio of 1:1000 in 5% BSA-PBS) overnight (at least 16 h) at 4° C. Anti-SMAD2 antibody (Ser308, D4364; rabbit monoclonal antibody), anti-phosphorylated SMAD2 antibody (Ser465/467, 138D4; rabbit monoclonal antibody), anti-SMAD3 antibody (C67H9; rabbit monoclonal antibody), anti-phosphorylated SMAD3 antibody (Ser423/425, C25A9; rabbit monoclonal antibody), anti-SMAD2/3 antibody (D7G7; rabbit monoclonal antibody), anti-phospho SMAD2/3 antibody (Ser465/467; Ser423/425; rabbit monoclonal antibody), anti-SMAD4 antibody (D3M6U; rabbit monoclonal antibody), and […] antibody (D6A8; rabbit monoclonal antibody) were purchased from Cell Signaling Technology (Danvers, Massachusetts, USA). […] The membrane was extensively rinsed in TBST again and protein immunobands were detected by using the LI-COR Odyssey Fluorescence Imaging System (LICOR Biosciences, Lincoln, NE, USA). […]
# [2] = system: punctured intervertebral disc (spinal degeneration); test: Digital X-ray and MRI imaging of punctured rat tail discs after disc local injection of bleomycin; format: in vivo, Sprague-Dawley rats; conditions: 5 μl of 10 and 5 μg/ml bleomycin per disc, injected two weeks after puncture, four weeks recovery
# Protocol: Six 8-week-old male Sprague-Dawley rats (Shanghai Laboratory, Shanghai Animal Research Center, China) were raised at 26-28° C. and 50-65% humidity for 12 h day and night. […] Before surgery, the rats were anesthetized by intraperitoneal injection of sodium pentobarbital (5 mg/100 g of body weight). The tails of rats were disinfected with iodinated polyvinyl pyrrolidone, and then a longitudinal skin incision was made to the tail near the ventral part to expose 6-10 parts of the intervertebral disc of the tail bone. The Co6/7 disc was used as a sham control, and Co7/8, Co8/9, and Co9/10 were used as experimental groups. A sterile 20-gauge needle was used to perpendicularly puncture the intervertebral disc through the skin, so as to ensure the needle passed through the annulus fibrosus and stuck into the nucleus pulposus located at the center of the intervertebral disc. The incision was then sutured and the rats were allowed to recover for two weeks. The rats (n=6) were re-subjected to surgery to expose Co8/9 and Co9/10 discs, and 5 μl of 10 and 5 μg/ml bleomycin were injected into each disc. The surgical incision was then sutured and the rats were allowed to recover for four weeks. At the end of the experiment, all rats were executed, the tails were collected, the soft tissues were cleared, and the spines were fixed with 4% PFA. Co6/7 was the control group (sham group), Co7/8 was the Puncture group, and Co8/9 and Co9/10 were the puncture+bleomycin administration groups (Bleomycin group).
# Digital X-ray imaging of the punctured disc samples (Puncture and Bleomycin groups) prepared in Embodiment 2 was performed in the anterior-posterior axis with a detector that provides up to 5× geometric magnification (Faxitron VersaVision; Faxitron Bioptics LLC, Tucson, AZ. USA). MRI imaging of the same punctured disc samples was performed on a Siemens MagnetomPrisma E11 (Siemens Healthineers, Erlangen, Germany) with the following parameters: TR 3000 ms, TE 80 ms, thickness 1.1 mm, interval 0.22 mm, field of view 160×65 mm, voxel size 0.25×0.1 mm.
# [3] = system: punctured intervertebral disc (spinal degeneration); test: Safranin O-fast green staining, Sirius red staining and immunofluorescence of disc paraffin sections; format: in vivo, Sprague-Dawley rats
# Protocol: Fixed disc tissue specimens (sham group, Puncture group, and Bleomycin group) were embedded in paraffin blocks, followed by tissue sectioning (with a thickness of 5 μm). For histological evaluation, paraffin sections were stained with saffron O-solid green and Sirius red according to standard laboratory protocols. For immunofluorescence detection, tissue sections were de-paraffined in graded xylene, rehydrated in graded alcohol solution, and then incubated in antigen retrieval buffer (Roche) at 37° C. for 30 min. After cooling to room temperature, the slides were immersed in PBS (pH 7.4) and washed 3 times for 5 min each. Autofluorescence quencher was added to the sections, and 5 min later, blocking buffer was added to block the sections for 30 min at room temperature. The sections were then incubated with primary antibodies overnight in a wet chamber at 4° C. Primary antibodies were diluted at a ratio of 1:100, and included anti-Col1a1, anti-FSP1, anti-TGFβ, and anti-TGFβR1 (all purchased from Cell Signaling Technology). The next day, sections were washed with PBS, conjugated to secondary antibody (anti-rabbit, 1:500; Cell Signaling Technology) through Alexa-fluor594, and then incubated for 50 min in the dark at room temperature. The sections were washed with PBS and then incubated with DAPI solution (Sigma Aldrich, St. Louis, MO, USA) for 10 minutes in the dark to stain the nucleus. The sections were subjected to a final PBS wash, air-dried, and then sealed with an anti-fluorescence quenching flake. Digital fluorescence images were taken by using a Leica DM4000 B epifluorescence microscope (Leica Microsystems).
# [4] = system: punctured intervertebral disc (spinal degeneration); test: Atomic force analysis of punctured disc paraffin sections; format: in vivo, Sprague-Dawley rats; conditions: Puncture+Bleomycin; FIG. 7 and 8
# Protocol: Atomic force analysis was performed by first extracting and dissecting the punctured vertebrae. Paraffin sections were made and then nanoindented (R<10 nm, nominal N/m, tips: Si/Tipless/Top, cantilevered Si/Al/Top; Park Systems) by using a Park NX20 (Park Systems, Korea) equipped with a microsphere colloidal tip. For undulating surfaces with large areas, a scan rate of 13 hz was used. Large scanning rates can reduce drift, but are generally only used to scan small planes. Indentation was performed by using a scanning Asyst air probe, where a z-piezo displacement rate was 10 μm/s, a maximum load was ˜120 nn, a curvature radius was 5 nm, and a force constant was 0.4 N/m.
# [5] = 10 and 5 μg/ml of bleomycin, compared with the puncture group and the control group, FIG. 4
# [6] = Puncture+Bleomycin vs Puncture group, FIG. 3
substance,measurement,setting,value
bleomycin,p-smad2 and p-smad3 in annulus fibrosus cells,"[1]; 5, 10 μg/ml bleomycin, co-culture 30 min or 24 h, western blot, FIG. 1A and 1B",activated
same,expression of end-protein products Col1a1 and FSP1,"[1]; 5, 10 μg/ml bleomycin, co-culture 30 min or 24 h, western blot, FIG. 1C",increased
same,"fibrogenic-associated proteins TGFβ, FSP1, and Col1a1 (immunoprotein western-blot)",[1]; legend of FIG. 1C,highly expressed
same,signal of the intervertebral disc (MRI),[2],difficult to be preserved
same,stability of the disc (X-ray and MRI),[2],not significantly affected
same,intervertebral space height (X-ray and MRI),[2]; vs Puncture group,effectively maintained
same,staining percentage of annulus fibrous (green),[3]; [5],significantly increased
same,staining percentage of type I collagen (yellow),[3]; [5],significantly increased
same,staining percentage of type III collagen (green),[3]; [5],significantly increased
same,type I and type III collagens secreted (immunofluorescence),"[3]; Puncture+, Bleomycin 10 or 5, FIGS. 5 and 6",a large amount of type I and type III collagens was secreted
same,annulus fibrosus repair (staining),[3]; [6],completely repaired and migrated inward
same,intervertebral space height (Safranin O-fast green and Sirius red staining),[3]; [6],significantly higher
same,type I collagen secreted to fill the intervertebral space (staining),[3]; [6],large amounts of type I collagen were secreted
same,fibrosis (atomic force analysis),[4],faster fibrosis
same,intervertebral space height (atomic force analysis),[4],preservation of the intervertebral space height
same,resistance of the disc to deformation (atomic force analysis),[4],increase in the resistance of the disc to deformation

# From patent US20240115658A1, “Use of an intervertebral disc fibrosis-inducing substance in preparation of medication” (Shanghai Ninth People's Hospital, Shanghai JiaoTong …, priority 2020, published 2024)
